Inhibition in vivo, Ki and EC50 data for 21 compounds are collected here from US8551978B2 (Theravance, Inc., priority 2009, dated 2013).

For test [1], the system named is MCh-induced bronchoconstriction. In words: Einthoven assay: bronchoprotection against methacholine (MCh)-induced bronchoconstriction. To be noted: inhaled or nasal; rat, 100 μg by inhalation, 24 h after administration; read-out: Broncho. at 24 h. Format: in vivo, rat. The procedure: This assay measures the ability of a test compound to provide bronchoprotection against methacholine (MCh)-induced bronchoconstriction in a rat. Male Sprague-Dawley rats (Harlan, Indianapolis, Ind.), weighing between 200 g and 350 g, were used for all studies. Test compound or vehicle (sterile deionized water) were dosed by inhalation (1H) over a 10 min period in a pie shaped inhalation chamber (R+S Molds, San Carlos, Calif.) using 5 mL of dosing solution. […] Rats were dosed with 100 μg of test compound unless otherwise indicated. At predetermined time points, rats were anesthetized with an intraperitoneal (IP) injection of 120 mg/kg inactin (thiobutabarbital). A supplemental dose (40 mg/kg, IP) was administered if the animal responded to physical stimuli (e.g. toe pinch). The surgical site was shaved and a 1-2 cm midline incision of the ventral aspect of the neck was made. The jugular vein was isolated and cannulated with a saline-filled polyethylene catheter (PE-50) to allow IV infusion of MCh. Trachea was dissected free and cannulated with a 14G needle (#NE-014, Small Parts, Miami Lakes, Fla.). After placement of the tracheal cannula, each rat was ventilated using a respirator (Model 683, Harvard Apparatus, Inc., MA) set at a stroke volume of 1 mL/100 g body weight (but not exceeding 2.5 mL volume) and a rate of 90 strokes per minute. A T-connector was placed along the respirator expiratory tubing to allow for measurement of changes in ventilation pressure (VP) using a Biopac transducer that was connected to a Biopac […]) pre-amplifier. Body temperature was maintained at 37° C. using a heating pad. Changes in VP were recorded using the Acknowledge Data Collection Software (Santa Barbara, Calif.). Baseline values were collected for at least 2.5 min. Rats were then challenged with non-cumulative intravenous (IV) infusions of 40 and 80 μg/kg MCh. MCh was infused intravenously for 2.5 minutes from a syringe pump (sp210iw, World Precision Instruments, Inc., Sarasota, Fla.) at a rate of 2 mL/kg/min, with a 2 minute interval between the two doses of MCh. Changes in ventilation pressure (cm H2O) in treated animals are expressed as % inhibition of MCh response relative to control animals. Other bronchoconstrictors, such as histamine and acetylcholine, can be used in place of MCh in this assay. Additionally, guinea pigs can be used instead of rats. […] Inhibition greater than or equal to 30 percent at 24 h is indicative of a long duration of action.

The target of test [2] is hM3 muscarinic receptor (Homo sapiens (Human), UniProt P20309). In words: Radioligand binding assay for muscarinic receptors ([3H]-NMS displacement, CHO cell membranes). The procedure:
The cells were grown in a 5% CO2, 37° C. incubator and lifted with 2 mM EDTA in dPBS. Cells were collected by 5 minute centrifugation at 650×g, and cell pellets were either stored frozen at −80° C. or membranes were prepared immediately for use. For membrane preparation, cell pellets were resuspended in lysis buffer and homogenized with a Polytron PT-2100 tissue disrupter (Kinematica AG; 20 seconds×2 bursts). Crude membranes were centrifuged at 40,000×g for 15 minutes at 4° C. The membrane pellet was then resuspended with re-suspension buffer and homogenized again with the Polytron tissue disrupter. The protein concentration of the membrane suspension was determined by the method described in Lowry et al., 1951, […], 193, 265. All membranes were stored frozen in aliquots at −80° C. or used immediately. […] The membranes were briefly homogenized using a Polytron tissue disruptor (10 seconds) prior to assay plate addition. […] The test compounds were initially dissolved to a concentration of 400 μM in dilution buffer and then serially diluted 5× with dilution buffer to final concentrations ranging from 10 μM to […]. The order of addition and volumes added to the assay plates were as follows: 25 μL radioligand, 25 μL diluted test compound, and 50 μL membranes. Assay plates were incubated for 6 hours at 37° C. […] Filter plates were rinsed three times with wash buffer (10 mM HEPES) to remove unbound radioactivity. The plates were then air-dried and 50 μL Microscint-20 liquid scintillation fluid (PerkinElmer, Inc.) were added to each well. The plates were then counted in a PerkinElmer Topcount liquid scintillation counter (PerkinElmer, Inc.). Binding data were analyzed by nonlinear regression analysis with the GraphPad Prism Software package (GraphPad Software, Inc., San Diego, Calif.) using the one-site competition model. […] These summary statistics were then converted back to K; values for data reporting.

Test [3] deals with hβ2 adrenergic receptor (Homo sapiens (Human), UniProt P07550). In words: Assay for determining adrenergic receptor agonist potency (cAMP Flashplate, HEK-293 cells). Format: cell-based. The conditions noted are these: data rounded to nearest 1 nM. As for the experimental part:
The cell monolayer was lifted with 2 mM EDTA in PBS. Cells were pelleted by centrifugation at 1,000 rpm, and cell pellets were either stored frozen at −80° C. or membranes were prepared immediately for use. cAMP assays were performed in a radioimmunoassay format using the Flashplate Adenylyl Cyclase Activation Assay System with [^125I]-cAMP (NEN SMP004, PerkinElmer Life Sciences Inc., Boston, Mass.), according to the manufacturers instructions. […] Cells were rinsed with PBS and detached in dPBS (Dulbecco's Phosphate Buffered Saline, without CaCl2 and MgCl2) containing 2 mM EDTA or Trypsin-EDTA solution (0.05% trypsin/0.53 mM EDTA). After counting cells in Coulter cell counter, cells were pelleted by centrifugation at 1,000 rpm and re-suspended in stimulation buffer containing TBMX (PerkinElmer Kit) pre-warmed to room temperature to a concentration of 1.6×10^6 to 2.8×10^6 cells/mL. About 40,000 to 80,000 cells per well were used in this assay. […] Reactions were incubated for 10 min at 37° C. and stopped by adding 100 μL of cold detection buffer containing [^125I]-cAMP (NEN SMP004, PerkinElmer Life Sciences, Boston, Mass.). […] Data were analyzed by nonlinear regression analysis with the GraphPad Prism Software package (GraphPad Software, Inc., San Diego, Calif.) with the sigmoidal equation. The Cheng-Prusoff equation (Cheng Y, and Prusoff W H., Biochemical Pharmacology, 1973, 22, 23, 3099-108) was used to calculate the EC50 values.

Setting [4] is: hM3 Muscarinic Receptor Binding, data rounded to nearest 0.1 nM.

Each structure is given as a SMILES string. Where a name gives a salt, the structure may show the parent alone. Read-outs that look alike come from different tables or passages of the source.

hβ2 adrenergic receptor, sequence (P07550 whole entry): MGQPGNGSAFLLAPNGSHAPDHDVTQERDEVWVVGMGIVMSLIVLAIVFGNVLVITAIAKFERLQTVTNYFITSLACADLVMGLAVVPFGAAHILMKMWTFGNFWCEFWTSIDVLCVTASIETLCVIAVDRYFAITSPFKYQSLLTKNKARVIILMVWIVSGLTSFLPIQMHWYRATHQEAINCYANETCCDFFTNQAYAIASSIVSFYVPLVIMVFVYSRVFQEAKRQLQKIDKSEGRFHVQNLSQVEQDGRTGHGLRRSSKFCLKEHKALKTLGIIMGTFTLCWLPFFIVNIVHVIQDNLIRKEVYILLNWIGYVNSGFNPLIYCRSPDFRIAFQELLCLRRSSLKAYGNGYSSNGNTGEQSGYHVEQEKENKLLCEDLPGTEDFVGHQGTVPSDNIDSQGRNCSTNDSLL
hM3 muscarinic receptor, sequence (P20309 whole entry): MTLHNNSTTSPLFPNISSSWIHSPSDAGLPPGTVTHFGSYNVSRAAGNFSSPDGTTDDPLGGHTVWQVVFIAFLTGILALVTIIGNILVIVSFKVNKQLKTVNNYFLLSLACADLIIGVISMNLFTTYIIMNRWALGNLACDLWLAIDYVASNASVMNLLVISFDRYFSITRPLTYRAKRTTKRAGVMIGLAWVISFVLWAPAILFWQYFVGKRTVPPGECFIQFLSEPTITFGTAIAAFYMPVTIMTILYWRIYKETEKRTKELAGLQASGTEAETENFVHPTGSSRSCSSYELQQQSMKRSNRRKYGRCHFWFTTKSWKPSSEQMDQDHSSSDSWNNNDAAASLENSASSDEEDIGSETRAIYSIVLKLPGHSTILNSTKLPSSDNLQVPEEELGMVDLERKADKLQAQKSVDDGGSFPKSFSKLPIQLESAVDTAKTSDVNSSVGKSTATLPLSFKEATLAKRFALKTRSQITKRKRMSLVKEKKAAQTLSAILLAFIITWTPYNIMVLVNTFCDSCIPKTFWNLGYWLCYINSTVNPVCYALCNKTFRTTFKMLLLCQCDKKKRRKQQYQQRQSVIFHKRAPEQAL

Regarding `C[C@@H](Cc1ccc(NC(=O)c2cccc(N(C)C(=O)CCN3CCC(OC(=O)Nc4ccccc4-c4ccccc4)CC3)c2)cc1)NC[C@H](O)c1ccc(O)c2[nH]c(=O)ccc12` [Compound I-43], the inhibition in vivo at 0.1 mg in test [1] was greater than 30%.
The Ki is the dissociation constant of the complex between target and ligand, obtained from inhibition or displacement. High values mean weaker binding, low ones tighter binding. By EC50 is commonly meant the concentration giving half of the maximal effect. Read a low EC50 as an effect from little substance. In turn, `Cc1ccc(CNC(=O)Cc2ccc(N(C)C(=O)CCN3CCC(OC(=O)Nc4ccccc4-c4ccccc4)CC3)cc2)cc1CC(C)NC[C@H](O)c1ccc(O)c2[nH]c(=O)ccc12` (stereo partly shown) [Compound I-70] gave a Ki in test [2] (setting [4]) of 0.3 nM. The compound also had an EC50 in test [3] of 1 nM.
For `CN(C(=O)CCN1CCC(OC(=O)Nc2ccccc2-c2ccccc2)CC1)c1ccc(CNC(=O)Cc2cccc(CNC[C@H](O)c3ccc(O)c4[nH]c(=O)ccc34)c2)cc1` [Compound I-74], in that order: 0.3 nM and 2 nM.
Take `C[C@H](Cc1ccc(CCNC(=O)c2ccc(N(C)C(=O)CCN3CCC(OC(=O)Nc4ccccc4-c4ccccc4)CC3)cc2)cc1)NC[C@H](O)c1ccc(O)c2[nH]c(=O)ccc12` [Compound I-57]: in test [2], the inhibition constant Ki was 0.1 nM. Further, in test [3], a half-maximal response (EC50) required 1 nM.
In turn, `CN(CCCC(=O)Nc1ccc(CNC[C@H](O)c2ccc(O)c3[nH]c(=O)ccc23)cc1)C(=O)CCN1CCC(OC(=O)Nc2ccccc2-c2ccccc2)CC1` [Compound I-1, Biphenyl-2-ylcarbamic Acid 1-(2-{[3-(4-{[(R)-2-Hydroxy-2-(8-hydroxy-2-oxo-1,2-dihydroquinolin-5-yl)ethylamino]methyl}-phenylcarbamoyl)propyl]methylcarbamoyl}ethyl)piperidin-4-yl Ester Ditrifluoroacetic Acid Salt] had a Ki in test [2] (setting [4]) of 0.1 nM. Besides, in test [3], a half-maximal effect (EC50) was put at 3 nM.
In test [2], `C[C@@H](Cc1cccc(CCC(=O)NCc2ccc(N(C)C(=O)CCN3CCC(OC(=O)Nc4ccccc4-c4ccccc4)CC3)cc2)c1)NC[C@H](O)c1ccc(O)c2[nH]c(=O)ccc12` [Compound I-93] showed a Ki of 0.8 nM. This compound came in with a concentration giving a half-maximal response (EC50) in test [3] of 11 nM.
`COc1ccc(CC(=O)Nc2cccc(N(C)C(=O)CCN3CCC(OC(=O)Nc4ccccc4-c4ccccc4)CC3)c2)cc1CC(C)NC[C@H](O)c1ccc(O)c2[nH]c(=O)ccc12` (stereo partly shown) [Compound I-54]: the Ki in test [2] (setting [4]) was found to be 0.2 nM. It took 2 nM to reach a half-maximal effect in test [3] (EC50).
In turn, `CN(C(=O)CCN1CCC(OC(=O)Nc2ccccc2-c2ccccc2)CC1)c1ccc(CNC(=O)CCc2cccc(CNC[C@H](O)c3ccc(O)c4[nH]c(=O)ccc34)c2)cc1` [Compound I-96] registered an EC50 in test [3] of 3 nM.
In turn, `Cc1c(CNC(=O)Cc2ccc(N(C)C(=O)CCN3CCC(OC(=O)Nc4ccccc4-c4ccccc4)CC3)cc2)cccc1CC(C)NC[C@H](O)c1ccc(O)c2[nH]c(=O)ccc12` (stereo partly shown) [Compound I-71] gave a Ki in test [2] of 0.1 nM. The compound further showed an EC50 in test [3] of 1 nM.
On to `Cc1ccc(C(=O)NCc2ccc(CC(C)NC[C@H](O)c3ccc(O)c4[nH]c(=O)ccc34)cc2)cc1N(C)C(=O)CCN1CCC(OC(=O)Nc2ccccc2-c2ccccc2)CC1` (stereo partly shown) [Compound I-47], for which the Ki in test [2] (setting [4]) was found to be 0.2 nM. The compound also displayed an EC50 in test [3] of 3 nM.
For the compound `COc1ccc(NC(=O)CCCN(C)C(=O)CCN2CCC(OC(=O)Nc3ccccc3-c3ccccc3)CC2)cc1CCNC[C@H](O)c1ccc(O)c2[nH]c(=O)ccc12` [Compound I-9], the Ki in test [2] is 0.1 nM. In addition, the response in test [3] was half-maximal at 6 nM (EC50).
For `CN(C(=O)CCN1CCC(OC(=O)Nc2ccccc2-c2ccccc2)CC1)c1ccc(CNC(=O)Cc2ccc(CNC[C@H](O)c3ccc(O)c4[nH]c(=O)ccc34)cc2)cc1` [Compound I-75], in that order: 0.2 nM and 2 nM.
Regarding `COc1ccc(CNC(=O)Cc2ccc(N(C)C(=O)CCN3CCC(OC(=O)Nc4ccccc4-c4ccccc4)CC3)cc2)cc1CC(C)NC[C@H](O)c1ccc(O)c2[nH]c(=O)ccc12` (stereo partly shown) [Compound I-72], in test [2] (setting [4]), the Ki is 0.4 nM. In addition, in test [3], a half-maximal effect (EC50) was put at 4 nM.
`Cc1cc(NC(=O)Cc2cccc(N(C)C(=O)CCN3CCC(OC(=O)Nc4ccccc4-c4ccccc4)CC3)c2)c(C)cc1CNC[C@H](O)c1ccc(O)c2[nH]c(=O)ccc12` [Compound I-60] displayed a Ki in test [2] of 0.1 nM. The EC50 in test [3] was found to be 3 nM.
Compound `CC(Cc1cc(CC(=O)NCc2ccc(N(C)C(=O)CCN3CCC(OC(=O)Nc4ccccc4-c4ccccc4)CC3)cc2)ccc1F)NC[C@H](O)c1ccc(O)c2[nH]c(=O)ccc12` (stereo partly shown) [Compound I-84] returned a Ki in test [2] (setting [4]) of 0.1 nM. Also, a half-maximal effect in test [3] (EC50) was put at 1 nM.
`CN(C(=O)CCN1CCC(OC(=O)Nc2ccccc2-c2ccccc2)CC1)c1cccc(CC(=O)Nc2ccc(CCNC[C@H](O)c3ccc(O)c4[nH]c(=O)ccc34)cc2)c1` [Compound I-63]: the Ki in test [2] worked out at 0.1 nM. The compound also showed an EC50 in test [3] of 1 nM.
The corresponding values for `CN(C(=O)CCN1CCC(OC(=O)Nc2ccccc2-c2ccccc2)CC1)c1cccc(CC(=O)Nc2ccc(CNC[C@H](O)c3ccc(O)c4[nH]c(=O)ccc34)cc2)c1` [Compound I-59] are 0.1 nM and 3 nM.
`C[C@@H](Cc1ccc(CCNC(=O)c2ccc(N(C)C(=O)CCN3CCC(OC(=O)Nc4ccccc4-c4ccccc4)CC3)cc2)cc1)NC[C@H](O)c1ccc(O)c2[nH]c(=O)ccc12` [Compound I-58]: in test [2], affinity was put at a Ki of 0.2 nM. The compound further showed a half-maximal effective concentration (EC50) in test [3] of 1 nM.
The compound `C[C@H](Cc1ccc(CCNC(=O)Cc2ccc(N(C)C(=O)CCN3CCC(OC(=O)Nc4ccccc4-c4ccccc4)CC3)cc2)cc1)NC[C@H](O)c1ccc(O)c2[nH]c(=O)ccc12` [Compound I-90] showed a Ki in test [2] of 0.1 nM. The EC50 in test [3] was 1 nM.
In the case of `CN(C(=O)CCN1CCC(OC(=O)Nc2ccccc2-c2ccccc2)CC1)c1ccc(CNC(=O)Cc2cccc(CCNC[C@H](O)c3ccc(O)c4[nH]c(=O)ccc34)c2)cc1` [Compound I-76], in test [2] (setting [4]), the affinity, expressed as Ki, was 0.3 nM. Besides, in test [3], the EC50 was 1 nM.
In test [2], `CN(C(=O)CCN1CCC(OC(=O)Nc2ccccc2-c2ccccc2)CC1)c1cccc(C(=O)Nc2ccc(CNC[C@H](O)c3ccc(O)c4[nH]c(=O)ccc34)cc2)c1` [Compound I-25, Ditrifluoroacetic Acid] registered a Ki of 0.1 nM. This compound had an EC50 in test [3] of 1 nM.
